In the supplement of paper PMC8617591:

Tests used:
[1] = system: Mycobacterium tuberculosis Erdman (autoluminescent); experiment: total FIC50 (Loewe) at 50% inhibition, three-drug combination (log2); higher = more antagonistic
Protocol: (§1)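 DiaMOND equipotent three-drug combination dose responses (10 doses, 1.5- or 2-fold spacing, centred on IC90) against autoluminescent M. tuberculosis Erdman in 8 in vitro models. Read-out is OD600, or luminescence for the intracellular and dormancy models, normalised to untreated wells. Hill-fit Einf, AUC25 and GRinf are potency metrics; FIC50 and FIC90 are total Loewe fractional inhibitory concentrations as log2 (negative = synergy).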

[2] = system: Mycobacterium tuberculosis Erdman (autoluminescent); experiment: total FIC90 (Loewe) at 90% inhibition, three-drug combination (log2); higher = more antagonistic
Protocol: as §1

[3] = system: Mycobacterium tuberculosis Erdman (autoluminescent); experiment: Einf, fitted maximum growth inhibition of three-drug combination (fraction); higher = stronger maximal inhibition
Protocol: as §1

[4] = system: Mycobacterium tuberculosis Erdman (autoluminescent); experiment: AUC25, normalised area under dose response up to IC25 (three-drug combination) (fraction (0-1)); higher = more potent at low dose
Protocol: as §1

[5] = system: Mycobacterium tuberculosis Erdman (autoluminescent); experiment: GRinf, maximum normalised growth rate inhibition (three-drug combination) (unitless (-1 to 1)); higher = less effect (negative = killing)
Protocol: as §1

COc1nc2ccc(Br)cc2cc1[C@@H](c1ccccc1)[C@@](O)(CCN(C)C)c1cccc2ccccc12 [bedaquiline] + CC[C@@H](CO)NCCN[C@@H](CC)CO [ethambutol] + NNC(=O)c1ccncc1 [isoniazid]
Details	AUC25, [4]	Einf, [3]	GRinf, [5]	total FIC50, [1]	total FIC90, [2]
in vitro model: acidic pH 5.7, time point: constant (~7 days, model-specific)	0.112	0.858	-0.682	0.0458	–
in vitro model: acidic pH 5.7, time point: terminal (~4-5 doublings, model-specific)	0.0484	0.953	-0.339	0.537	-0.855
in vitro model: intracellular J774, time point: constant = terminal	–	0.988	-0.401	–	-0.307

Details	AUC25, [4]	Einf, [3]	GRinf, [5]	total FIC50, [1]	total FIC90, [2]
in vitro model: butyrate, time point: constant (~7 days, model-specific)	0.0535	0.943	-0.0949	0.537	–
in vitro model: butyrate, time point: terminal (~4-5 doublings, model-specific)	0.0425	0.975	-0.105	0.472	-0.153
in vitro model: cholesterol 0.05 mM, time point: constant (~7 days, model-specific)	0.0741	0.695	-0.191	0.858	–
in vitro model: cholesterol 0.05 mM, time point: terminal (~4-5 doublings, model-specific)	0.0839	0.891	-0.205	1.12	0.995
in vitro model: cholesterol-high 0.2 mM, time point: constant (~7 days, model-specific)	0.026	0.998	-0.751	1.05	–
in vitro model: cholesterol-high 0.2 mM, time point: terminal (~4-5 doublings, model-specific)	0.0384	1	-0.702	1.09	0.96
in vitro model: dormancy (butyrate + nitrate, low O2), time point: constant (~7 days, model-specific)	0.121	0.849	0.491	1.04	–
in vitro model: dormancy (butyrate + nitrate, low O2), time point: terminal (~4-5 doublings, model-specific)	0.0982	0.987	-0.0322	0.301	0.198
in vitro model: standard 7H9 glycerol, time point: constant = terminal	0.0658	0.957	-0.0846	0.398	–
in vitro model: valerate, time point: constant (~7 days, model-specific)	0.116	0.912	-0.0812	0.656	–
in vitro model: valerate, time point: terminal (~4-5 doublings, model-specific)	0.0717	0.954	-0.0498	0.744	0.58

COc1nc2ccc(Br)cc2cc1[C@@H](c1ccccc1)[C@@](O)(CCN(C)C)c1cccc2ccccc12 [bedaquiline] + CC[C@@H](CO)NCCN[C@@H](CC)CO [ethambutol] + O=[N+]([O-])c1cn2c(n1)OC[C@@H](OCc1ccc(OC(F)(F)F)cc1)C2 [pretomanid]
Details	AUC25, [4]	Einf, [3]	GRinf, [5]	total FIC50, [1]	total FIC90, [2]
in vitro model: acidic pH 5.7, time point: constant (~7 days, model-specific)	0.0902	0.854	-0.482	0.869	–
in vitro model: acidic pH 5.7, time point: terminal (~4-5 doublings, model-specific)	0.0847	0.982	-0.316	0.639	0.498
in vitro model: intracellular J774, time point: constant = terminal	–	0.938	-0.203	–	-1.11

Details	AUC25, [4]	Einf, [3]	GRinf, [5]	total FIC50, [1]	total FIC90, [2]
in vitro model: butyrate, time point: constant (~7 days, model-specific)	0.059	0.925	-0.0548	0.544	–
in vitro model: butyrate, time point: terminal (~4-5 doublings, model-specific)	0.0482	0.966	-0.0543	0.327	-0.226
in vitro model: cholesterol 0.05 mM, time point: constant (~7 days, model-specific)	0.0996	0.781	-0.351	0.964	–
in vitro model: cholesterol 0.05 mM, time point: terminal (~4-5 doublings, model-specific)	0.0849	0.927	-0.277	1.08	1.26
in vitro model: cholesterol-high 0.2 mM, time point: constant (~7 days, model-specific)	0.0639	0.893	-0.294	1.17	–
in vitro model: cholesterol-high 0.2 mM, time point: terminal (~4-5 doublings, model-specific)	0.0509	1	-0.825	1.06	1.39
in vitro model: dormancy (butyrate + nitrate, low O2), time point: constant (~7 days, model-specific)	0.123	0.894	0.353	0.967	–
in vitro model: dormancy (butyrate + nitrate, low O2), time point: terminal (~4-5 doublings, model-specific)	0.115	0.997	-0.265	0.317	0.645
in vitro model: standard 7H9 glycerol, time point: constant = terminal	0.0898	0.972	-0.0976	0.231	–
in vitro model: valerate, time point: constant (~7 days, model-specific)	0.139	0.897	-0.0325	-0.239	–
in vitro model: valerate, time point: terminal (~4-5 doublings, model-specific)	0.0867	0.948	-0.0164	0.257	0.215

COc1nc2ccc(Br)cc2cc1[C@@H](c1ccccc1)[C@@](O)(CCN(C)C)c1cccc2ccccc12 [bedaquiline] + CO[C@H]1/C=C/O[C@@]2(C)Oc3c(C)c(O)c4c(O)c(c(/C=N/N5CCN(C6CCCC6)CC5)c(O)c4c3C2=O)NC(=O)/C(C)=C\C=C\[C@H](C)[C@H](O)[C@@H](C)[C@@H](O)[C@@H](C)[C@H](OC(C)=O)[C@@H]1C [rifapentine] + CO[C@H]1/C=C/O[C@@]2(C)Oc3c(C)c(O)c4c(O)c(c(/C=N/N5CCN(C)CC5)c(O)c4c3C2=O)NC(=O)/C(C)=C\C=C\[C@H](C)[C@H](O)[C@@H](C)[C@@H](O)[C@@H](C)[C@H](OC(C)=O)[C@@H]1C [rifampicin]
Details	AUC25, [4]	Einf, [3]	GRinf, [5]	total FIC50, [1]	total FIC90, [2]
in vitro model: acidic pH 5.7, time point: constant (~7 days, model-specific)	0.0935	0.893	-0.273	0.903	–
in vitro model: acidic pH 5.7, time point: terminal (~4-5 doublings, model-specific)	0.082	0.985	-0.265	0.765	0.574
in vitro model: intracellular J774, time point: constant = terminal	–	0.925	-0.129	–	0.499

Details	AUC25, [4]	Einf, [3]	GRinf, [5]	total FIC50, [1]	total FIC90, [2]
in vitro model: butyrate, time point: constant (~7 days, model-specific)	0.119	0.965	-0.195	0.199	-0.101
in vitro model: butyrate, time point: terminal (~4-5 doublings, model-specific)	0.102	0.987	-0.131	0.144	0.454
in vitro model: cholesterol 0.05 mM, time point: constant (~7 days, model-specific)	0.118	0.73	-0.233	0.198	–
in vitro model: cholesterol 0.05 mM, time point: terminal (~4-5 doublings, model-specific)	0.0915	0.927	-0.216	0.249	0.0937
in vitro model: cholesterol-high 0.2 mM, time point: constant (~7 days, model-specific)	0.0646	0.957	-0.49	0.444	-0.0134
in vitro model: cholesterol-high 0.2 mM, time point: terminal (~4-5 doublings, model-specific)	0.0574	0.998	-0.604	0.544	0.3
in vitro model: dormancy (butyrate + nitrate, low O2), time point: constant (~7 days, model-specific)	0.0847	0.905	0.174	0.141	0.723
in vitro model: dormancy (butyrate + nitrate, low O2), time point: terminal (~4-5 doublings, model-specific)	0.0726	0.982	-0.165	0.273	0.653
in vitro model: standard 7H9 glycerol, time point: constant = terminal	0.0706	0.924	-0.0268	0.258	0.35
in vitro model: valerate, time point: constant (~7 days, model-specific)	0.046	0.873	-0.0628	0.679	–
in vitro model: valerate, time point: terminal (~4-5 doublings, model-specific)	0.028	0.951	-0.0371	0.579	0.302
